Results on 18 compounds are retold here after ChEMBL document CHEMBL5303573, “Mapping human microbiome drug metabolism by gut bacteria and their genes” (Nature, 2019).

Series [1] can be described thus: The drug is tested on Bifidobacterium ruminantium strain: fecal isolate for biotransformation. The drug concentrations were measured before and after a 12-h incubation by liquid-chromatography-coupled mass spectrometry (LC–MS). To be noted: 2 µM.
The nature of series [2]: The drug is tested on Eggerthella lenta strain: ATCC25559 for biotransformation. The drug concentrations were measured before and after a 12-h incubation by liquid-chromatography-coupled mass spectrometry (LC–MS). To be noted: 2 µM.
Series [3] can be described thus: The drug is tested on Bacteroides coprophilus strain: DSM18228 for biotransformation. The drug concentrations were measured before and after a 12-h incubation by liquid-chromatography-coupled mass spectrometry (LC–MS). Particulars: 2 µM.
A short description of series [4]: The drug is tested on Bacteroides vulgatus strain: ATCC8482 for biotransformation. The drug concentrations were measured before and after a 12-h incubation by liquid-chromatography-coupled mass spectrometry (LC–MS). Particulars: phocaeicola vulgatus, 2 µM.
The conditions of series [5]: bacteroides fragilis, 12 h, 2 µM.
Description: The drug is tested on Bacteroides fragilis strain: DS-208 for biotransformation. The drug concentrations were measured before and after a 12-h incubation by liquid-chromatography-coupled mass spectrometry (LC–MS)
For series [6] the following is noted: victivallis vadensis, 12 h, 2 µM.
Description: The drug is tested on Victivallis vadensis strain: ATCC BAA-548 for biotransformation. The drug concentrations were measured before and after a 12-h incubation by liquid-chromatography-coupled mass spectrometry (LC–MS)
Series [7] in a line: The drug is tested on the gut metagenome community of MV01 with ENA study accession number: PRJEB31790 and ENA sample accession number: SAMEA5537482 for biotransformation. The drug concentrations were measured over 9 timepoints collected between 0 and 24 hours of incubation by liquid-chromatography-coupled mass spectrometry (LC–MS). Type of series: ADME. Also on record: dose 2 uM, timepoint 0, 1, 2, 4, 6, 8, 12, 18, 24 hours. Particulars: 2 µM.

Series [8] is described as follows: The drug is tested on the gut metagenome community of MV03 with ENA study accession number: PRJEB31790 and ENA sample accession number: SAMEA5537484 for biotransformation. The drug concentrations were measured over 9 timepoints collected between 0 and 24 hours of incubation by liquid-chromatography-coupled mass spectrometry (LC–MS). The class given is ADME. Also noted: dose 2 uM, timepoint 0, 1, 2, 4, 6, 8, 12, 18, 24 hours. Particulars: 2 µM.

A short description of series [9]: The drug is tested on the gut metagenome community of MV05 with ENA study accession number: PRJEB31790 and ENA sample accession number: SAMEA5537486 for biotransformation. The drug concentrations were measured over 9 timepoints collected between 0 and 24 hours of incubation by liquid-chromatography-coupled mass spectrometry (LC–MS). Particulars: 2 µM. Also on record: dose 2 uM, timepoint 0, 1, 2, 4, 6, 8, 12, 18, 24 hours. The class given is ADME.

Series [10] in a line: The drug is tested on the gut metagenome community of MV06 with ENA study accession number: PRJEB31790 and ENA sample accession number: SAMEA5537487 for biotransformation. The drug concentrations were measured over 9 timepoints collected between 0 and 24 hours of incubation by liquid-chromatography-coupled mass spectrometry (LC–MS). The class given is ADME. Also on record: dose 2 uM, timepoint 0, 1, 2, 4, 6, 8, 12, 18, 24 hours. Particulars: 2 µM.

The nature of series [11]: The drug is tested on the gut metagenome community of MV07 with ENA study accession number: PRJEB31790 and ENA sample accession number: SAMEA5537488 for biotransformation. The drug concentrations were measured over 9 timepoints collected between 0 and 24 hours of incubation by liquid-chromatography-coupled mass spectrometry (LC–MS). The class given is ADME. Particulars: 2 µM. Also on record: dose 2 uM, timepoint 0, 1, 2, 4, 6, 8, 12, 18, 24 hours.

The nature of series [12]: The drug is tested on the gut metagenome community of MV10 with ENA study accession number: PRJEB31790 and ENA sample accession number: SAMEA5537491 for biotransformation. The drug concentrations were measured over 9 timepoints collected between 0 and 24 hours of incubation by liquid-chromatography-coupled mass spectrometry (LC–MS). To be noted: 2 µM. The class given is ADME. Also noted: dose 2 uM, timepoint 0, 1, 2, 4, 6, 8, 12, 18, 24 hours.

The nature of series [13]: The drug is tested on the gut metagenome community of MV11 with ENA study accession number: PRJEB31790 and ENA sample accession number: SAMEA5537492 for biotransformation. The drug concentrations were measured over 9 timepoints collected between 0 and 24 hours of incubation by liquid-chromatography-coupled mass spectrometry (LC–MS). Type of series: ADME. Particulars: 2 µM. Also noted: dose 2 uM, timepoint 0, 1, 2, 4, 6, 8, 12, 18, 24 hours.

A short description of series [14]: The drug is tested on the gut metagenome community of MV15 with ENA study accession number: PRJEB31790 and ENA sample accession number: SAMEA5537496 for biotransformation. The drug concentrations were measured over 9 timepoints collected between 0 and 24 hours of incubation by liquid-chromatography-coupled mass spectrometry (LC–MS). The class given is ADME. Also on record: dose 2 uM, timepoint 0, 1, 2, 4, 6, 8, 12, 18, 24 hours. To be noted: 2 µM.

Series [15] can be described thus: The drug is tested on the gut metagenome community of MV18 with ENA study accession number: PRJEB31790 and ENA sample accession number: SAMEA5537499 for biotransformation. The drug concentrations were measured over 9 timepoints collected between 0 and 24 hours of incubation by liquid-chromatography-coupled mass spectrometry (LC–MS). The class given is ADME. Also noted: dose 2 uM, timepoint 0, 1, 2, 4, 6, 8, 12, 18, 24 hours. Particulars: 2 µM.

Series [16] can be described thus: The drug is tested on the gut metagenome community of MV23 with ENA study accession number: PRJEB31790 and ENA sample accession number: SAMEA5537504 for biotransformation. The drug concentrations were measured over 9 timepoints collected between 0 and 24 hours of incubation by liquid-chromatography-coupled mass spectrometry (LC–MS). The class given is ADME. Also on record: dose 2 uM, timepoint 0, 1, 2, 4, 6, 8, 12, 18, 24 hours. Particulars: 2 µM.

Series [17] is described as follows: The drug is tested on the gut metagenome community of MV24 with ENA study accession number: PRJEB31790 and ENA sample accession number: SAMEA5537505 for biotransformation. The drug concentrations were measured over 9 timepoints collected between 0 and 24 hours of incubation by liquid-chromatography-coupled mass spectrometry (LC–MS). The class given is ADME. Also noted: dose 2 uM, timepoint 0, 1, 2, 4, 6, 8, 12, 18, 24 hours. Particulars: 2 µM.

A short description of series [18]: The drug is tested on the gut metagenome community of MV28 with ENA study accession number: PRJEB31790 and ENA sample accession number: SAMEA5537509 for biotransformation. The drug concentrations were measured over 9 timepoints collected between 0 and 24 hours of incubation by liquid-chromatography-coupled mass spectrometry (LC–MS). Type of series: ADME. Also noted: dose 2 uM, timepoint 0, 1, 2, 4, 6, 8, 12, 18, 24 hours. Particulars: 2 µM.

Series [19] can be described thus: The drug is tested on Clostridium hathewayi strain: DSM13479 for biotransformation. The drug concentrations were measured before and after a 12-h incubation by liquid-chromatography-coupled mass spectrometry (LC–MS). To be noted: hungatella hathewayi, 2 µM.
Series [20] in a line: The drug is tested on Clostridium spiroforme strain: DSM1552 for biotransformation. The drug concentrations were measured before and after a 12-h incubation by liquid-chromatography-coupled mass spectrometry (LC–MS). To be noted: thomasclavelia spiroformis, 2 µM.

Regarding `CCCCC(=O)N(Cc1ccc(-c2ccccc2-c2nnn[nH]2)cc1)[C@H](C(=O)O)C(C)C`, the “Bacterial Biotransformation” value in series [1] is reported as “Compound NOT metabolized”; in series [2], “Compound NOT metabolized”; in [3], “Compound NOT metabolized”; in series [4], “Compound metabolized”; in series [5], “Compound metabolized”; in [6] it was “Compound NOT metabolized”.

Consider `COc1ccc(/C=C/C(=O)Nc2ccccc2C(=O)O)cc1OC`, for which the “Bacterial Biotransformation” value in series [3], in [5] and in [6] was “Compound NOT metabolized” throughout.

As to `CCCCC(=O)O[C@]1(C(=O)CO)[C@@H](C)C[C@H]2[C@@H]3CCC4=CC(=O)C=C[C@]4(C)[C@@]3(F)[C@@H](O)C[C@@]21C` [BETAMETHASONE VALERATE], the “Bacterial Biotransformation” value in series [1] is listed as “Compound NOT metabolized”; in series [2], “Compound metabolized”; in [4], “Compound metabolized”; in series [5], “Compound metabolized”; in series [6], “Compound metabolized”.

For the compound `C[C@@H]1C[C@H]2[C@@H]3CCC4=CC(=O)C=C[C@]4(C)[C@@]3(F)[C@@H](O)C[C@]2(C)[C@@]1(O)C(=O)CO` [DEXAMETHASONE], the “Bacterial Biotransformation” value is given as “Compound NOT metabolized” in [2]; “Compound NOT metabolized” in series [3]; “Compound NOT metabolized” in series [7]; “Compound metabolized” in series [8]; “Compound NOT metabolized” in series [9]; “Compound NOT metabolized” in [10]. Further, the “Bacterial Biotransformation” value is reported as “Compound NOT metabolized” in series [11]; “Compound metabolized” in series [12]; “Compound NOT metabolized” in [13]; “Compound NOT metabolized” in [14]; “Compound NOT metabolized” in series [15]; “Compound NOT metabolized” in [16]. The “Bacterial Biotransformation” value in [17] is “Compound metabolized”; in series [18] it was “Compound NOT metabolized”; in series [5], “Compound metabolized”; in series [6], “Compound NOT metabolized”.

For the compound `CN(C)C(=O)C(CCN1CCC(O)(c2ccc(Cl)cc2)CC1)(c1ccccc1)c1ccccc1` [LOPERAMIDE], the “Bacterial Biotransformation” value in [2] is reported as “Compound NOT metabolized”; in series [3], “Compound metabolized”; in series [4], “Compound metabolized”; in [6], “Compound NOT metabolized”.

On to `Cc1cc(C)cc(OCC2CNC(=O)O2)c1` (stereo unspecified) [METAXALONE], for which the figures for the “Bacterial Biotransformation” value in series [1], in [2] and in series [4] were “Compound NOT metabolized”, “Compound NOT metabolized” and “Compound metabolized”, respectively.

Turning to `COc1c2occc2cc2ccc(=O)oc12` [METHOXSALEN], the “Bacterial Biotransformation” value in series [1] was “Compound NOT metabolized”; in series [19] it was “Compound metabolized”; in series [20], “Compound NOT metabolized”.

In the case of `CC(C)(C)NCC(O)COc1cccc2c1CC(O)C(O)C2` (stereo unspecified) [NADOLOL], the “Bacterial Biotransformation” value in [4] and in series [5] was “Compound NOT metabolized” each time.

`CC(=O)O[C@H]1C(=O)[C@@]2(C)[C@H]([C@H](OC(=O)c3ccccc3)[C@]3(O)C[C@H](OC(=O)[C@H](O)[C@@H](NC(=O)c4ccccc4)c4ccccc4)C(C)=C1C3(C)C)[C@]1(OC(C)=O)CO[C@@H]1C[C@@H]2O` [PACLITAXEL]: the “Bacterial Biotransformation” value is on record as “Compound NOT metabolized” in series [1]; “Compound NOT metabolized” in series [2]; “Compound NOT metabolized” in series [3]; “Compound metabolized” in [5]; “Compound NOT metabolized” in series [6].

`CC(C)(C)NC[C@H](O)COc1ccccc1C1CCCC1.CC(C)(C)NC[C@H](O)COc1ccccc1C1CCCC1.O=S(=O)(O)O` [PENBUTOLOL SULFATE]: the entries for the “Bacterial Biotransformation” value in [4] and in series [6] were “Compound metabolized” and “Compound NOT metabolized”, respectively.

In the case of `CCc1nc(N)nc(N)c1-c1ccc(Cl)cc1` [PYRIMETHAMINE], the “Bacterial Biotransformation” value in series [1], in series [2], in series [3], in [4] and in series [5] was “Compound NOT metabolized” each time.

For the compound `C=C[C@H]1CN2CC[C@H]1C[C@H]2[C@H](O)c1ccnc2ccc(OC)cc12.C=C[C@H]1CN2CC[C@H]1C[C@H]2[C@H](O)c1ccnc2ccc(OC)cc12.O.O.O=S(=O)(O)O` [QUININE SULFATE], the “Bacterial Biotransformation” value in [1], in [3], in series [19] and in series [20] was “Compound NOT metabolized” in each case.

In the case of `CCC(=O)NCC[C@@H]1CCc2ccc3c(c21)CCO3` [RAMELTEON], the “Bacterial Biotransformation” value in series [1] was “Compound NOT metabolized”; in [2] it was “Compound NOT metabolized”; in [3], “Compound NOT metabolized”; in series [4], “Compound metabolized”; in series [5] it was “Compound metabolized”.

With `O=C(NC(Cc1cc(=O)[nH]c2ccccc12)C(=O)O)c1ccc(Cl)cc1` (stereo unspecified) [REBAMIPIDE], the “Bacterial Biotransformation” value in series [1], in series [3] and in [6] was “Compound NOT metabolized” each time.

Regarding `COC(=O)[C@H]1[C@H]2C[C@@H]3c4[nH]c5cc(OC)ccc5c4CCN3C[C@H]2C[C@@H](OC(=O)c2cc(OC)c(OC)c(OC)c2)[C@@H]1OC` [RESERPINE], the “Bacterial Biotransformation” value in [1], in series [2], in series [3], in series [4], in series [5] and in series [6] was “Compound NOT metabolized” each time.

With `CCN(CC)CCNC(=O)c1cc(S(C)(=O)=O)ccc1OC` [TIAPRIDE], the “Bacterial Biotransformation” value in [4] is given as “Compound NOT metabolized”.

On to `Cc1ccc(/C(=C\CN2CCCC2)c2ccccn2)cc1` [TRIPROLIDINE], for which the “Bacterial Biotransformation” value in series [2], in series [3], in series [4] and in series [5] was “Compound NOT metabolized” in each case.

With `O=C(O[C@H]1C[C@H]2CC[C@@H](C1)[N+]21CCCC1)C(O)(c1ccccc1)c1ccccc1.[Cl-]` [TROSPIUM CHLORIDE], the “Bacterial Biotransformation” value in series [1], in [2], in series [5] and in series [6] was “Compound NOT metabolized” each time.
